Data published in patent US9045481B2 (priority 2012, dated 2015).

Tests used:
[1] = CNS penetration across the blood brain barrier; format: in vivo, mice
Experimental: Mice are dosed with compounds. Brain to blood ratios are determined by HPLC and LC/MS/MS analysis following oral administration of the test compounds in mice.

mu opioid receptor (mOR) = target: T1, mu opioid receptor (mOR) (Homo sapiens, UniProt P35372); assay: Mu opioid receptor radioligand binding; details: called weak affinity; read-out: Affinity at mu opioid receptors
T1 construct: expressed in transfected cells; host or cells: CHO or HEK293
Experimental: Established radioligand binding methods are used to evaluate the ability of the compounds to block reuptake of serotonin and dopamine in membrane preparations of synaptosomes. Equilibrium binding affinity values is determined for each compound at opioid receptors (μ and κ subtypes) and biogenic amine transporters (DAT and SERT). Where possible, binding experiments utilize membranes derived from CHO or HEK293 cells engineered to overexpress the human form of the receptor or transporter of interest. Radiolabeling of opioid receptors, and biogenic amine transporters utilizes conventional radioligands, buffers and incubation conditions according to published assays.
Test compounds, reference compounds and the radioligand (Kd value) are added to binding buffer. Assays are run with test or reference compound over a range of concentration (0.0001-10 uM) in triplicate using a 96-well sample plate containing radioligands specific for the target receptor or transporter. […] Bound radioactivity is counted in a Microbeta scintillation counter. Total bound radioactivity is estimated from triplicate wells containing no test or reference compound, together with nonspecific binding and filter blanks. The average bound radioactivity in the presence of the test compounds is expressed % inhibition=100%−% radioactivity bound. […]

a3b4 nAChRs = a3b4 nAChRs (Homo sapiens, UniProt P30926+P32297); assay: Relative potency at a3b4 nAChRs (epibatidine-induced calcium response), cell line not stated; format: cell-based
Experimental: Nicotinic functional assays are performed using the Molecular Devices FLIPR® Calcium 5 Assay Kit. HEK293 cells overexpressing a3β4, a4β2 or α7 (50,000 cells per well in 100 μl growth media) and are plated in clear bottom black walled 96-well microplates and incubated for 24-48 hours at 37° C., 5% CO2 until a 80-90% confluent monolayer is formed. On the day of the assay, 100 μl of Calcium 5 Dye is added to each well. Following addition of dye, cells are incubated at 25° C. for 60 minutes. Following dye loading, 50 μl of a 5× solution of reference or test compound of appropriate concentration range (0.01-30 μM), prepared in 20 mM HEPES pH 7.4 in HBSS, is added to each well. Plates are then transferred to the Molecular Devices Flexstation® which transfers 50 μL of a 5× solution (500 nM) of epibatine to each well to initiate the Ca+2 flux. Additional wells (in quadruplicate) are prepared with no added test or reference ligand for measurement of 100% flux. The RFU (relative fluorescence units) in the presence of the test or reference compounds is then expressed on the percent scale. The percent inhibition of epibatidine induced Ca^+2 flux is calculated as follows: % inhibition=100%−% RFU (relative fluorescence units). The IC50 values for reference and test compounds are obtained by fitting normalized RFU data using Graphpad Prism software.

a3b4 nAChRs, sequence (P30926 22-498): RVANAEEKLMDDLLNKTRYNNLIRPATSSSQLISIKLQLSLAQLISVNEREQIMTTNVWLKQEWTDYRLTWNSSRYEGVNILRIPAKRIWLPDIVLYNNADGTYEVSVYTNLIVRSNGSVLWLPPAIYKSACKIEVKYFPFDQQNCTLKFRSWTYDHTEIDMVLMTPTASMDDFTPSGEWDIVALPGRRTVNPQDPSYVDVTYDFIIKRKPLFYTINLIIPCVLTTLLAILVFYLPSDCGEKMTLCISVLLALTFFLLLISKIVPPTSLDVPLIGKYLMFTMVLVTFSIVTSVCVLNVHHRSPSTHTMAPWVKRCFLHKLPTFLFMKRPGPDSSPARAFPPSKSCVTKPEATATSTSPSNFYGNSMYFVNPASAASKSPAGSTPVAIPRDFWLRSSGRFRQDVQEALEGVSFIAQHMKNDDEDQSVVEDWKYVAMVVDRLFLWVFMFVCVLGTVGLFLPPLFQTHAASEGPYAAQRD
a3b4 nAChRs, sequence (P32297 32-505): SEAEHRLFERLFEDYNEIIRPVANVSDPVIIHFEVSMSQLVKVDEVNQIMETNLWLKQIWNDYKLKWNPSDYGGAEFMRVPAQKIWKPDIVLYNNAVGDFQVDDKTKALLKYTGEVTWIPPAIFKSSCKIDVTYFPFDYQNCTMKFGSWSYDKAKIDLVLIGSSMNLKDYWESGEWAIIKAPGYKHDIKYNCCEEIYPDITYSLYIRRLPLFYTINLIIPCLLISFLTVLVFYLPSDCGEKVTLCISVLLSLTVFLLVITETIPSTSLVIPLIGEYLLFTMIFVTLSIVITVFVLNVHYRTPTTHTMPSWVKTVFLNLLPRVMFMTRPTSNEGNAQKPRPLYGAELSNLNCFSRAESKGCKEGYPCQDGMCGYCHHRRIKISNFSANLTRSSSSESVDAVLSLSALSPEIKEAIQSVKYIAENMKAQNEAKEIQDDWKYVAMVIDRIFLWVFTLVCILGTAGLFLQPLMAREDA
T1 sequence (P35372 whole entry): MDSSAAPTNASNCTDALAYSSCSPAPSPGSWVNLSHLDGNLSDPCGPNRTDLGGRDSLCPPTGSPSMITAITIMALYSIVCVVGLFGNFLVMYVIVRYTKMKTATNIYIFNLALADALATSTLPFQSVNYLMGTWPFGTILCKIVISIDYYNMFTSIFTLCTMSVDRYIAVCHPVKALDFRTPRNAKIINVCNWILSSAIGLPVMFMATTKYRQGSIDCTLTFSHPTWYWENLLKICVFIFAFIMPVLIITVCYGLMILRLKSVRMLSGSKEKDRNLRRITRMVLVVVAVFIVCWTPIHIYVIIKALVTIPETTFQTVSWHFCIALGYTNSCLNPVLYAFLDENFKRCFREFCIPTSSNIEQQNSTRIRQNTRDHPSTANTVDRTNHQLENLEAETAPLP

Row | Molecule | Crossing of the BBB / concentration in brain [1] | Ki (mu opioid receptor (mOR)) [nM] | Ratio from 18-MC (relative potency at a3b4 nAChRs) (a3b4 nAChRs; ratio to 18-MC = 1, lower is more potent) | Potency as inhibitor of the epibatidine-induced calcium response in a3b4 nAChRs, in words (a3b4 nAChRs; compared with 18-MC and noribogaine)
1 | CC[C@H]1CC2C[C@H]3c4[nH]c5ccc(O)cc5c4CCN(C2)C13 [Noribogaine, 12-hydroxyibogamine] | cross the BBB and reach micromolar concentrations in brain | 900 |  | 
2 | COCC[C@H]1CC2CN3CCc4c([nH]c5ccccc45)[C@](C(=O)OC)(C2)[C@H]13 [Compound 18-MC, 18-methoxycoronaridine] | cross the BBB and reach micromolar concentrations in brain |  | 1 | 
3 | Ibogaine |  |  |  | more potent inhibitors than 18-MC
